Like-named read-outs stand apart in the source and are kept apart here.
Legend:
[1] = system: human breast adenocarcinoma (MCF-7) cells; assay: Anti-proliferation test (MTT colorimetry); type: cell-based; conditions: MCF7, MCF-7, 72 h
Protocol: (§1) The compound of formula 1 (prepared in embodiment 1), and the compound of formula 2 (prepared in embodiment 2) are given at different concentrations to human hepatocellular carcinoma (HepG2) cells, human prostate carcinoma (PC3) cells, human cervical carcinoma (HeLa) cells, human breast adenocarcinoma (MCF-7) cells, and human leukemia (K562) cells; all the groups are incubated 72 h in an incubator containing 5% of CO2 at 37° C., and then inhabitation ratios of the compounds to the tumor cells are measured by using methyl thiazolyl tetrazolium (MTT) colorimetry, and results are shown in table 1.

[2] = system: human cervical carcinoma (HeLa) cells; assay: Anti-proliferation test (MTT colorimetry); type: cell-based; conditions: 72 h
Protocol: as §1

[3] = system: human hepatocellular carcinoma (HepG2) cells; assay: Anti-proliferation test (MTT colorimetry); type: cell-based; conditions: HepG2, 72 h
Protocol: as §1

[4] = system: human leukemia (K562) cells; assay: Anti-proliferation test (MTT colorimetry); type: cell-based; conditions: K562, 72 h
Protocol: as §1

[5] = system: human prostate carcinoma (PC3) cells; assay: Anti-proliferation test (MTT colorimetry); type: cell-based; conditions: PC-3, PC3, 72 h
Protocol: as §1

[6] = human, microsomes, 1 µM, pH 7.47
[7] = monkey, microsomes, 1 µM, pH 7.47
in vitro = conditions: dog, microsomes, pH 7.47
[8] = Liver microsomal metabolism stability test; conditions: for Remainder: mouse liver microsomes

IC50 [1]: 3.23 nM
IC50 [2]: 7.4 nM
IC50 [3]: 26 nM
IC50 [4]: 7.15 nM
IC50 [5]: 19 nM
Remainder ([6]; 0 h): 100.00%
Remainder ([6]; 10 min): 78.76%
Remainder ([6]; 0.5 h): 56.18%
Remainder ([6]; 1.5 h): 23.87%
Remainder ([7]; 0 h): 100.00%
Remainder ([7]; 10 min): 52.00%
Remainder ([7]; 0.5 h): 20.40%
Remainder ([7]; 1.5 h): 4.76%
half-life at 1 µM (in vitro): 24.7 min
microsomal CLint at 1 µM (in vitro): 56 µL/min/mg
metabolism in the liver microsomes (in words) ([8]; mouse): moderate
Remainder ([8]; incubation time 0 min): 100.00%
Remainder ([8]; incubation time 10 min): 87.76%
Remainder ([8]; incubation time 30 min): 63.76%
Remainder ([8]; incubation time 90 min): 32.23%
SMILES: CCOc1cccc(Nc2nn(C)c3c2Cc2cc(OCC)c(OCC(N)=O)cc2-3)c1 [LL-01]

Source: patent US10059674B2, “Design, synthesis, and biological evaluation of 1-methyl-1, 4-dihyrdoindeno[1,2-C]pyrazole analogues as potential anticaner agents targeting tubulin colchicine binding site” (ACT PHARMA CO., LTD., priority 2016, dated 2018)
